Values joined by “and” are separate entries in the source; they are usually repeats but may differ in a detail not shown here. Equal values may be shown once. “Also recorded” adds a separate entry of the source.
Key:
[1] = target: T1, α2β3γ2L GABAARs (Homo sapiens, UniProt P18507+P28472+P47869); test: Two-electrode voltage clamp of recombinant α2β3γ2L GABAARs expressed in Xenopus oocytes; format: cell-based
T1 construct: expressed in transfected cells; host or cells: Xenopus laevis oocytes injected with capped mRNA, α2:β3:γ2L 3:1:3
Description: (§1) Human complementary DNA (cDNA) of GABAAR α2 subunit (vector: pCMV6-XL5) was purchased from OriGene Technologies (Rockville, MD, USA), and the human β3 (vector: pGEMHE) and γ2L (vector: pCDM8) subunits were generous gifts from Dr. Bjarke Ebert (H. Lundbeck A/S, Valby, Denmark) and Dr. Paul Whiting (Merck, Sharp and Dohme Research Laboratories, Harlow, Essex, UK) respectively. […] Plasmid vectors with the cDNA incorporated were linearised using appropriate restriction endonucleases (α2: SmaI; β3: NheI; γ2L: NotI). Capped RNA transcripts were synthesised from linearised plasmids using the mMessage mMachine T7 transcript kit from Ambion (Austin, TX, USA). Purified messenger RNA (mRNA) was dissolved in nuclease-free water (Ambion, Austin, TX, USA), and its quality was assessed using 1% agarose gel electrophoresis. The concentration of each subunit mRNA was measured using Nanodrop ND-100 UV-Vis spectrophotometer (Thermo Fisher Scientific, North Ryde, NSW, Australia).
(§2) Various combinations of α2, β3 and γ2L subunit mRNAs were mixed to different ratios as stated in the text, and diluted accordingly to a concentration of 5 ng/μL (unless otherwise stated). […] Injected oocytes were stored in ND96 storage solution supplemented with 50 μg/mL gentamycin and tetracycline at 18°C. Two-electrode voltage clamp recordings were performed on oocytes 2–4 days post-injection at room temperature (20–25°C) using a GeneClamp 500B amplifier (ADInstruments, Sydney, NSW, Australia) or a Warner OC-725C Oocyte Clamp (Warner Instrument Corp, Hamden, CT, USA). All experiments were conducted at a holding potential of –60 mV, and data were acquired with a PowerLab 2/25, and LabChart (version 5.0.2) software (ADInstruments, Sydney, NSW, Australia). The recording microelectrodes (0.2–1.1 MΩ) were generated from capillary glass (Harvard Apparatus, Holliston, MA, USA) using a single-stage glass microelectrode puller (Narishige, Tokyo, Japan), and were filled with 3 M KCl solution. The perfusion system was built using a series of polycarbonate, high-density polyethylene two-way stopcocks (Qosina, Edgewood, NY, USA), connected through tubing to the recording chamber (100 μL), where the oocyte was continuously perfused with ND96 recording solution (96 mM NaCl, 2 mM KCl, 1 mM MgCl2, 1.8 mM CaCl2, 5 mM HEPES hemisodium; pH 7.4) at an approximate rate of 5 mL/min.
(§3) Perfusates containing these chemicals were made up fresh before each application. The concentration-response curves of agonists were obtained by exposing oocytes to increasing concentrations of agonists until the currents peaked. […] All experiments were performed using at least two different batches of oocytes.
(§4) Prism (version 5.04; GraphPad Software, La Jolla, CA, USA) was used for data analysis.
(§5) In all cases, we constrained the bottom to 0, and when fitting data to the biphasic model, the Hill slopes were constrained to 1. Statistical comparisons of results for different injection ratios of β3γ2L receptors were performed using ANOVA with Tukey’s post-hoc test. When comparing results from different injection ratios of β3γ2L receptors with α2β3γ2L receptors, the ANOVA Dunnett’s test was used. Pairwise comparisons were performed using Student’s t test. Statistical significance was attained at p < 0.05.

[2] = target: T2, α2γ2L receptors (Homo sapiens, UniProt P18507+P47869); test: Two-electrode voltage clamp of binary α2γ2L receptors expressed in Xenopus oocytes; format: cell-based
T2 construct: expressed in transfected cells; host or cells: Xenopus laevis oocytes injected with α2 and γ2L mRNAs
Description: as §1, §2, §3

[3] = target: T3, β3γ2L GABAARs (Homo sapiens, UniProt P18507+P28472); test: Two-electrode voltage clamp of β3γ2L GABAARs expressed at various β3:γ2L mRNA ratios in Xenopus oocytes; format: cell-based; conditions: for Expression level (current response elicited by GABA): 3 mM GABA; for Frac (95% CI), proportion of maximal response mediated by the more potent component / n H_1 (Hill slope) / n H_2 (Hill slope): biphasic fit; for n H_1 (Hill slope) / n H_2 (Hill slope): Hill slopes constrained to 1; for EC50: EC50 (95% CI) of direct activation; for EC50 / E max ± SEM (300 μM 2’MeO6MF-elicited current normalised against 3 mM GABA response) / n H ± SEM (Hill slope) of direct activation: -60 mV; for 2’MeO6MF activity: 100 μM; for Enhancement of GABA current (co-application): GABA EC3–10 + 100 or 300 μM ligand, data not shown
T3 construct: expressed in transfected cells; host or cells: Xenopus laevis oocytes injected with β3 and γ2L mRNAs at 1:1 to 1:100
Description: as §1
as §2, with “All experiments were conducted at a holding potential of –60 mV, and data were acquired with a PowerLab 2/25, and LabChart (version 5.0.2) software (ADInstruments, Sydney, NSW, Australia).” left out
as §3, §4, §5

[4] = target: T1, α2β3γ2L GABAARs; parameters: method as in PMID 21797842; conditions: α2β3γ2L 1:1:10 injection ratio; cited from earlier work

T1 sequence (P47869 29-451): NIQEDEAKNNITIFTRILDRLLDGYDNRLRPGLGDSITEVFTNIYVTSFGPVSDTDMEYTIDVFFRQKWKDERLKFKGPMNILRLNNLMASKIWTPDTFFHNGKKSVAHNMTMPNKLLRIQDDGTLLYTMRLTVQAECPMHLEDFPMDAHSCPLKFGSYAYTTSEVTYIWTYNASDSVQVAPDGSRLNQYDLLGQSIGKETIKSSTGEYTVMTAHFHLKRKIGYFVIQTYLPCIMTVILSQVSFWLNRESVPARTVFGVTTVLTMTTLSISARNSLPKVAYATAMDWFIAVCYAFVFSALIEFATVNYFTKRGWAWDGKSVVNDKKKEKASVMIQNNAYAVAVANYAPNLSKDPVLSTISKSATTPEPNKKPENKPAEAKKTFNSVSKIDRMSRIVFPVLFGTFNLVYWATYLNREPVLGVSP
T1 sequence (P28472 26-473): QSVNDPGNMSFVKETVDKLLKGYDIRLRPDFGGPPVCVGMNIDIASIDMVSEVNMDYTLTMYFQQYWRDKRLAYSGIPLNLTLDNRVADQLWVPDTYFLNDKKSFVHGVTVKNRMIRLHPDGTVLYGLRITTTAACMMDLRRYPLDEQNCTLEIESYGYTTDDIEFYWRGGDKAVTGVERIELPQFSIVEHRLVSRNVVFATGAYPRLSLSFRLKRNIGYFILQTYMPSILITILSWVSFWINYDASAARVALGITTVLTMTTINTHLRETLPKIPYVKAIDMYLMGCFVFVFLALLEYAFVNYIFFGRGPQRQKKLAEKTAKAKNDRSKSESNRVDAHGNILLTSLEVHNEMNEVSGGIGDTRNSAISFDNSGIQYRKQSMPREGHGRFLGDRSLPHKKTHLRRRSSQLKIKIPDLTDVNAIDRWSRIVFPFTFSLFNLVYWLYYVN
T1 sequence (P18507 40-475): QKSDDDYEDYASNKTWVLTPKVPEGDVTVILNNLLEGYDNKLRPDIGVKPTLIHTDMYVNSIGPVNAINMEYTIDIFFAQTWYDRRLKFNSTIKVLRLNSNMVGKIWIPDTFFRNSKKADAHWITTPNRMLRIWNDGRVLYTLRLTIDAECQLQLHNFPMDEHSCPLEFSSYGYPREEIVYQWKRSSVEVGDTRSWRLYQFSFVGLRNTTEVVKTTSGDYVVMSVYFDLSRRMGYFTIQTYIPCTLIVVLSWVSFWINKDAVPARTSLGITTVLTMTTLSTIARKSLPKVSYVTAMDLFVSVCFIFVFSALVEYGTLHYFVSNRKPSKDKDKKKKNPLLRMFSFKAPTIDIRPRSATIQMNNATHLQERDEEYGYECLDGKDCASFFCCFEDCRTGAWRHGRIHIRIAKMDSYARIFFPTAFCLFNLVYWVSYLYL
T2 sequence (P47869 29-451): as the sequence (P47869 29-451) above
T2 sequence (P18507 40-475): as the sequence (P18507 40-475) above
T3 sequence (P28472 26-473): as the sequence (P28472 26-473) above
T3 sequence (P18507 40-475): as the sequence (P18507 40-475) above

## NCCCC(=O)O [GABA, γ-aminobutyric acid]
[1]; α2β3γ2L 3:1:3, 3 mM GABA
  Expression level (current response elicited by GABA): 4300 ± 940 nA
[2]; α2γ2L 1:1, 5 ng mRNA, 60 mM GABA, -60 mV
  Expression level (current response elicited by GABA): no function; also recorded: No current
[3]; β3γ2L 1:1
  Expression level (current response elicited by GABA): 110 ± 34 nA
[3]; β3γ2L 1:5
  Expression level (current response elicited by GABA): 270 ± 80 nA
[3]; β3γ2L 1:10
  Expression level (current response elicited by GABA): 310 ± 61 nA
[3]; β3γ2L 1:15
  I max ± SEM (current amplitude elicited by 30 mM GABA): 780 ± 220 nA
  Expression level (current response elicited by GABA): 490 ± 47 nA
[3]; β3γ2L 1:15, monophasic fit
  n H_1 ± SEM (Hill slope): 0.54 and 0.54 ± 0.040
[3]; β3γ2L 1:20
  Expression level (current response elicited by GABA): 860 ± 87 nA
[3]; β3γ2L 1:50
  I max ± SEM (current amplitude elicited by 30 mM GABA): 1000 ± 250 nA
  Expression level (current response elicited by GABA): 1000 ± 160 nA
  Frac (95% CI), proportion of maximal response mediated by the more potent component: 0.74 (0.67–0.80)
  n H_1 (Hill slope): 1.0
  n H_2 (Hill slope): 1.0
[3]; β3γ2L 1:100
  I max ± SEM (current amplitude elicited by 30 mM GABA): 1000 ± 97 nA
  Expression level (current response elicited by GABA): 1100 ± 100 nA
  Frac (95% CI), proportion of maximal response mediated by the more potent component: 0.71 (0.65–0.77)
  n H_1 (Hill slope): 1.0
  n H_2 (Hill slope): 1.0

## COc1ccccc1-c1cc(=O)c2cc(C)ccc2o1 [2’MeO6MF, 2’-methoxy-6-methylflavone]
[1]
  EC50: ~74 µM
[1]; α2β3γ2L 3:1:3
  2’MeO6MF activity: Activation
[1]; α2β3γ2L 3:1:3, 300 μM ligand, mean ± SEM
  Direct activation, % of the 3 mM GABA response: 8.2 ± 3.6%
[1]; α2β3γ2L 3:1:3, GABA EC3–10 + 100 or 300 μM ligand, data not shown
  Enhancement of GABA current (co-application): No enhancement
[2]; α2γ2L 1:1, 100 μM
  2’MeO6MF activity: no function; also recorded: No current
[3]; β3γ2L 1:15
  EC50: 45 µM
  2’MeO6MF activity: directly activated receptors expressed efficaciously; also recorded: Activation
  E max ± SEM (300 μM 2’MeO6MF-elicited current normalised against 3 mM GABA response): 1.2 ± 0.10
  n H ± SEM (Hill slope) of direct activation: 1.8 ± 0.42
  Enhancement of GABA current (co-application): No enhancement
[3]; β3γ2L 1:50
  EC50: 62 µM
  2’MeO6MF activity: activation with low efficacy
  E max ± SEM (300 μM 2’MeO6MF-elicited current normalised against 3 mM GABA response): 0.086 ± 0.018
  n H ± SEM (Hill slope) of direct activation: 1.4 ± 0.88
[3]; β3γ2L 1:100
  EC50: 63 µM
  2’MeO6MF activity: activation with low efficacy
  E max ± SEM (300 μM 2’MeO6MF-elicited current normalised against 3 mM GABA response): 0.10 ± 0.020
  n H ± SEM (Hill slope) of direct activation: 1.6 ± 0.76
  Enhancement of GABA current (co-application): No enhancement
[3]; β3γ2L 1:1
  2’MeO6MF activity: inhibited the constitutive activity; also recorded: inverse agonist; also recorded: Inverse agonism
[3]; β3γ2L 1:5
  2’MeO6MF activity: mixed agonist and inverse agonist activity; also recorded: mixed inverse agonist and agonist effect; also recorded: Inverse agonism/activation
[3]; β3γ2L 1:10
  2’MeO6MF activity: mixed agonist and inverse agonist activity; also recorded: mixed inverse agonist and agonist effect; also recorded: Inverse agonism/activation
[3]; β3γ2L 1:15, 100 μM ligand
  Elicited current, % of the 3 mM GABA responses (mean ± SEM): 87 ± 4.5%
[3]; β3γ2L 1:20
  2’MeO6MF activity: variable efficacy; also recorded: Activation
[3]; β3γ2L 1:20, 100 μM ligand
  Elicited current, % of the 3 mM GABA responses (mean ± SEM): approximately 34 ± 4.0%
  Relative efficacy, range across oocytes, % of the 3 mM GABA responses: 1.0 to 120%
[3]; β3γ2L 1:50, 100 μM ligand
  Elicited current, % of the 3 mM GABA responses (mean ± SEM): around 6.7 ± 1.2%
[3]; β3γ2L 1:100, 100 μM ligand
  Elicited current, % of the 3 mM GABA responses (mean ± SEM): ~5.1 ± 0.72%
[4]
  Agonist efficacy (direct activation): full agonist
